Key:
[1] = target: T1, SULT1A2*2 (Homo sapiens, UniProt P50226, I7T/N235T); experiment: Substrate kinetics of recombinant SULT1A2*2; format: biochemical; conditions: mean±SEM of nine
T1 construct: made in house; host or cells: COS-1 cells, pCR3.1 vector, unpurified cytosol
Method: (§1) Res. Commun., 198:1119-1127 (1994).
(§2) Expression constructs for each of the common (frequencies≧1%) allozymes for SULT1A1 and SULT1A2 were used to transfect COS-1 cells. Selected biochemical and physical properties of the expressed enzymes were then determined. Those properties included apparent Km values for the two cosubstrates for the enzyme reaction (4-nitrophenol and PAPS); thermal stability; and sensitivity to inhibition by DCNP. The substrate kinetic experiments were performed in two steps. Initially a wide range of concentrations of 4-nitrophenol that varied over at least three orders of magnitude was tested, followed by detailed study of concentrations close to the apparent Km value for that allozyme. […] Data from these experiments were then used to construct double inverse plots that were used to calculate apparent Km values (Table 5).

[2] = target: T2, SULT1A3 (Homo sapiens, UniProt P0DMM9); experiment: Substrate kinetics of recombinant SULT1A3; format: biochemical; conditions: 3.9 to 3000 μM 4-nitrophenol, mean±SEM of nine
T2 construct: made in house; host or cells: COS-1 cells, pCR3.1 vector, unpurified cytosol
T2 sequence (P0DMM9 whole entry): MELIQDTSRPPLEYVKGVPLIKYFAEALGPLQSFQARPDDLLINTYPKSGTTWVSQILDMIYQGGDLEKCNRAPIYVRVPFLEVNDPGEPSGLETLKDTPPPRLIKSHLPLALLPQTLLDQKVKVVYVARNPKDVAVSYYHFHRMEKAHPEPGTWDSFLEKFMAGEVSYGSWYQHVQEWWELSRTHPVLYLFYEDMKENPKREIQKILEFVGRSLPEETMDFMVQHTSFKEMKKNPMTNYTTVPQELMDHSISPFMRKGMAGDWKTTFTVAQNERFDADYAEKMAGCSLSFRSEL

[3] = system: SULT1A2; conditions: 100 μM 4-nitrophenol; cytosol from six pooled liver samples; three attempts
Method: Human hepatic “surgical waste” tissue was obtained from 61 patients undergoing clinically-indicated hepatectomies or open hepatic biopsies and was stored at −80° C. These frozen hepatic tissue samples were homogenized in 5 mM potassium phosphate buffer, pH 6.5, and centrifuged at 100,000×g for 1 hr to obtain high-speed supernatant (HSS) cytosolic preparations. […] All tissue samples were obtained under guidelines approved by the Mayo Clinic Institutional Review Board.
Unless otherwise stated, concentrations of 4-nitrophenol and PAPS were 4 μM and 0.4 μM, respectively. […] Enzyme activity was expressed as nmoles of sulfate conjugated product formed per hr of incubation. Protein concentrations were measured by the dye-binding method of Bradford with bovine serum albumin (BSA) as a standard.
Therefore, 100 μM 4-nitrophenol was used as a substrate with cytosol from six pooled liver samples in an attempt to measure SULT1A2 activity.

[4] = target: T3, SULT1A2*3 (Homo sapiens, UniProt P50226, P19L); experiment: Substrate kinetics of recombinant SULT1A2*3; format: biochemical; conditions: 50 μM 4-nitrophenol, mean±SEM of nine, read-out: Apparent Km PAPS
T3 construct: made in house; host or cells: COS-1 cells, pCR3.1 vector, unpurified cytosol
T3 sequence (P50226 whole entry P19L): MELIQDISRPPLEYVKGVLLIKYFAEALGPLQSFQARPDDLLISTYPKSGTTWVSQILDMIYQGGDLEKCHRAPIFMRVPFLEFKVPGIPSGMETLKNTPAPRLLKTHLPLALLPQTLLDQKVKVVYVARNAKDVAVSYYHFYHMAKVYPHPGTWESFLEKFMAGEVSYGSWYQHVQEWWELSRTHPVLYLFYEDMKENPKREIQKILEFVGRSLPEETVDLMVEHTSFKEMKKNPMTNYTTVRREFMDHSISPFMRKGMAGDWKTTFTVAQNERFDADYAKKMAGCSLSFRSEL
Method: as §1, §2

[5] = target: T4, SULT1A1*3 (Homo sapiens, UniProt P50225); experiment: Substrate kinetics of recombinant SULT1A1*3; format: biochemical; conditions: 4 μM 4-nitrophenol, mean±SEM of nine, read-out: Apparent Km PAPS
T4 construct: made in house; host or cells: COS-1 cells, pCR3.1 vector, unpurified cytosol
Method: as §1, §2

[6] = target: T5, SULT1A1*1 (Homo sapiens, UniProt P50225); experiment: Substrate kinetics of recombinant SULT1A1*1; format: biochemical; conditions: 4 μM 4-nitrophenol, mean±SEM of nine, read-out: Apparent Km PAPS
T5 construct: made in house; host or cells: COS-1 cells, pCR3.1 vector, unpurified cytosol
Method: as §1, §2

[7] = target: T6, SULT1A2*1 (Homo sapiens, UniProt P50226); experiment: Substrate kinetics of recombinant SULT1A2*1; format: biochemical; conditions: 100 μM 4-nitrophenol, mean±SEM of nine
T6 construct: made in house; host or cells: COS-1 cells, pCR3.1 vector, unpurified cytosol
Method: as §1, §2

[8] = target: SULT1A1*2 (Homo sapiens, UniProt P50225, R213H/V223M); experiment: Substrate kinetics of recombinant SULT1A1*2; format: biochemical; conditions: 4 μM 4-nitrophenol, mean±SEM of nine, read-out: Apparent Km PAPS
SULT1A1*2, sequence (P50225 whole entry R213H/V223M): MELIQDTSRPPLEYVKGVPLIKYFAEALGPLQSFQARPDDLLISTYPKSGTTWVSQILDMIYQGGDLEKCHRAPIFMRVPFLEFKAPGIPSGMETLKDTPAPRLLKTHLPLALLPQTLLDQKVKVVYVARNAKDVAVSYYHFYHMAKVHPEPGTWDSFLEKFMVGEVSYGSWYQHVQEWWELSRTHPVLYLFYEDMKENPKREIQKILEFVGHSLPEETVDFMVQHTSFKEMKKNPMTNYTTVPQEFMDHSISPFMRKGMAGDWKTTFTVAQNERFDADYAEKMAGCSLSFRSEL
Method: as §1, §2

[9] = system: TS PST; conditions: thermostable phenol-preferring form; cited from earlier work
[10] = target: T6, SULT1A2*1; experiment: DCNP inhibition of recombinant SULT1A2*1 (COS-1 cell cytosol); format: biochemical; conditions: 100 μM 4-nitrophenol, mean±SEM of nine determinations
Method: as §1
(§3) Finally, sensitivity of the recombinant proteins to inhibition by DCNP was determined. Sixteen different concentrations of DCNP, ranging from 0.01 to 1000 μM, were tested with each recombinant allozyme.

[11] = target: T2, SULT1A3; experiment: DCNP inhibition of recombinant SULT1A3 (COS-1 cell cytosol); format: biochemical; conditions: 3000 μM 4-nitrophenol, mean±SEM of nine determinations
Method: as §1, §3

[12] = target: T5, SULT1A1*1; experiment: DCNP inhibition of recombinant SULT1A1*1 (COS-1 cell cytosol); format: biochemical; conditions: 4 μM 4-nitrophenol, mean±SEM of nine determinations
Method: as §1, §3

[13] = target: T4, SULT1A1*3; experiment: DCNP inhibition of recombinant SULT1A1*3 (COS-1 cell cytosol); format: biochemical; conditions: 4 μM 4-nitrophenol, mean±SEM of nine determinations
Method: as §1, §3

[14] = target: T3, SULT1A2*3; experiment: DCNP inhibition of recombinant SULT1A2*3 (COS-1 cell cytosol); format: biochemical; conditions: 50 μM 4-nitrophenol, mean±SEM of nine determinations
Method: as §1, §3

[15] = target: T1, SULT1A2*2; experiment: DCNP inhibition of recombinant SULT1A2*2 (COS-1 cell cytosol); format: biochemical; conditions: 3000 μM 4-nitrophenol, mean±SEM of nine determinations
Method: as §1, §3

[16] = target: TL PST (Homo sapiens, UniProt P0DMM9); conditions: thermolabile monoamine-preferring form; cited from earlier work
TL PST, sequence (P0DMM9 whole entry): as the sequence (P0DMM9 whole entry) above

T1 sequence (P50226 whole entry I7T/N235T): as the sequence (P50226 whole entry P19L) above, with I7T, L19P, N235T counted along it

For `O=[N+]([O-])c1ccc(O)cc1` [4-nitrophenol], the “Apparent Km 4-Nitrophenol” value ([1]; 1.0 to 1000 μM 4-nitrophenol) was “very high”, the “Apparent Km 4-Nitrophenol” value [2] was “very high” and the “SULT1A2 activity (sulfation of 4-nitrophenol)” value [3] was “no activity was detected”.

With `Nc1ncnc2c1ncn2[C@@H]1O[C@H](COP(=O)(O)OS(=O)(=O)O)[C@@H](OP(=O)(O)O)[C@H]1O` [PAPS, 3′-phosphoadenosine-5′-phosphosulfate] the Km [4] was 280 ± 6 nM, the Km [5] was 170 ± 20 nM and the Km [6] was 1210 ± 20 nM. The “Apparent Km PAPS” value [7] was “approximately an order of magnitude lower”, the Km ([7]; read-out: Apparent Km PAPS) was 50 ± 1 nM and the Km ([1]; 3000 μM 4-nitrophenol, read-out: Apparent Km PAPS) was 500 ± 1 nM. It also gave a Km [8] of 980 ± 30 nM.

For `O=[N+]([O-])c1cc(Cl)c(O)c(Cl)c1` [DCNP, 2,6-dichloro4-nitrophenol], the “sensitivity to inhibition by DCNP” value [9] is listed as “sensitive to inhibition”, the IC50 [10] is listed as 6.94 ± 0.55 µM and the “DCNP Inhibition IC50” value [11] is listed as “least sensitive to inhibition”. For the same compound, the IC50 [11] was 86.9 ± 6 µM, the IC50 [12] was 1440 ± 110 nM and the IC50 [13] was 1320 ± 270 nM. The “DCNP Inhibition IC50” value [14] was “most”, the IC50 [14] was 970 ± 1 nM and the IC50 [15] was 44.4 ± 1.5 µM. For the same compound, the “sensitivity to inhibition by DCNP” value [16] was “relatively insensitive”.

From patent publication US20040235098A1, “Sulfotransferase sequence variants” (Mayo Foundation for Medical Education and Research, a …, priority 1998, published 2004)
